Source: ChEMBL document CHEMBL1130816, “Synthesis and antibacterial activity of O-methyl derivatives of azalide antibiotics: II. 6-OME derivatives via clarithromycin” (1998)
In brackets after ≈: the same amount, converted by molar mass.

Legend:
Format in all cases: functional
[1] = tested on: Enterococcus faecalis; experiment: Compound was evaluated for antibacterial activity against Enterococcus faecalis (MB5407) sensitive strain
[2] = tested on: Streptococcus pyogenes; experiment: Compound was evaluated for antibacterial activity against Streptococcus pyogenes (MB2874) sensitive strain
[3] = tested on: Enterococcus faecium; experiment: Compound was evaluated for antibacterial activity against Enterococcus faecium (MB5516) sensitive strain
[4] = tested on: Bacillus subtilis; experiment: Compound was evaluated for antibacterial activity against Bacillus subtilis (MB5586) sensitive strain
[5] = tested on: Streptococcus pneumoniae; experiment: Compound was evaluated for antibacterial activity against Streptococcus pneumoniae (MB3957) sensitive strain
[6] = tested on: Staphylococcus aureus; experiment: Compound was evaluated for antibacterial activity against Staphylococcus aureus (MB2865) sensitive strain

Row | SMILES | MIC [1] [µg/mL] | MIC [2] [µg/mL] | MIC [3] [µg/mL] | MIC [4] [µg/mL] | MIC [5] [µg/mL] | MIC [6] [µg/mL]
1 | CC[C@H]1OC(=O)[C@H](C)[C@@H](O[C@H]2C[C@@](C)(OC)[C@@H](OC)[C@@H](C)O2)[C@H](C)[C@@H](O[C@@H]2O[C@H](C)C[C@@H](N(C)C)[C@H]2O)[C@](C)(O)C[C@@H](C)N(C)C[C@H](C)[C@@H](OC)[C@]1(C)OC | 32 (≈ 40.5 µM) | 0.5 (≈ 0.632 µM) | 8 (≈ 10.1 µM) | 2 (≈ 2.53 µM) | 4 (≈ 5.06 µM) | 32 (≈ 40.5 µM)
2 | CC[C@H]1OC(=O)[C@H](C)[C@@H](O[C@H]2C[C@@](C)(OC)[C@@H](OC)[C@@H](C)O2)[C@H](C)[C@@H](O[C@@H]2O[C@H](C)C[C@@H](N(C)C)[C@H]2O)[C@](C)(O)C[C@@H](C)N(C)C[C@H](C)[C@@H](O)[C@]1(C)O | 8 (≈ 10.5 µM) | 0.03 (≈ 0.0393 µM) | 2 (≈ 2.62 µM) | 4 (≈ 5.24 µM) | 0.5 (≈ 0.655 µM) | 8 (≈ 10.5 µM)
3 | CC[C@H]1OC(=O)[C@H](C)[C@@H](O[C@H]2C[C@@](C)(OC)[C@@H](OC)[C@@H](C)O2)[C@H](C)[C@@H](O[C@@H]2O[C@H](C)C[C@@H](N(C)C)[C@H]2O)[C@](C)(OC)C[C@@H](C)N(C)C[C@H](C)[C@@H](OC)[C@]1(C)OC | 32 (≈ 39.7 µM) | 0.5 (≈ 0.621 µM) | 8 (≈ 9.94 µM) | 8 (≈ 9.94 µM) | 4 (≈ 4.97 µM) | 32 (≈ 39.7 µM)
4 | CC[C@H]1OC(=O)[C@H](C)[C@@H](O[C@H]2C[C@@](C)(OC)[C@@H](O)[C@H](C)O2)[C@H](C)[C@@H](O[C@@H]2O[C@H](C)C[C@H](N(C)C)[C@H]2O)[C@](C)(O)C[C@@H](C)CN(C)[C@H](C)[C@@H](O)[C@]1(C)O [AZITHROMYCIN] | 4 (≈ 5.34 µM) | 0.03 (≈ 0.0401 µM) | 0.25 (≈ 0.334 µM) | 1 (≈ 1.34 µM) | < 0.06 | 0.5 (≈ 0.668 µM)

More lines, now with the values ahead:

Row | MIC [1] [µg/mL] | MIC [2] [µg/mL] | MIC [3] [µg/mL] | MIC [4] [µg/mL] | MIC [5] [µg/mL] | MIC [6] [µg/mL] | SMILES
5 | 2 (≈ 2.67 µM) | < 0.06 | 0.125 (≈ 0.167 µM) | 0.3 (≈ 0.401 µM) | < 0.06 | 0.3 (≈ 0.401 µM) | CC[C@H]1OC(=O)[C@H](C)[C@@H](O[C@H]2C[C@@](C)(OC)[C@H](O)[C@H](C)O2)[C@H](C)[C@@H](O[C@@H]2O[C@H](C)C[C@H](N(C)C)[C@H]2O)[C@](C)(O)C[C@@H](C)N(C)C[C@H](C)[C@@H](O)[C@]1(C)O
6 | 16 (≈ 21 µM) | 0.06 (≈ 0.0786 µM) | 1 (≈ 1.31 µM) | 1 (≈ 1.31 µM) | 0.5 (≈ 0.655 µM) | 2 (≈ 2.62 µM) | CC[C@H]1OC(=O)[C@H](C)[C@@H](O[C@H]2C[C@@](C)(OC)[C@@H](O)[C@@H](C)O2)[C@H](C)[C@@H](O[C@@H]2O[C@H](C)C[C@@H](N(C)C)[C@H]2O)[C@](C)(OC)C[C@@H](C)N(C)C[C@H](C)[C@@H](O)[C@]1(C)O
7 | 8 (≈ 10.5 µM) | 0.12 (≈ 0.157 µM) | 1 (≈ 1.31 µM) | 1 (≈ 1.31 µM) | 0.5 (≈ 0.655 µM) | 2 (≈ 2.62 µM) | CC[C@H]1OC(=O)[C@H](C)[C@@H](O[C@H]2C[C@@](C)(OC)[C@@H](O)[C@@H](C)O2)[C@H](C)[C@@H](O[C@@H]2O[C@H](C)C[C@@H](N(C)C)[C@H]2O)[C@](C)(OC)C[C@@H](C)CN(C)[C@H](C)[C@@H](O)[C@]1(C)O
